Some test systems named below: A549 NSCLC; HCT-15 colon; KM12 colon; SF-268 CNS; SF-295 CNS; SF-539 CNS; SK-MEL-28 melanoma; SK-MEL-5 melanoma; TK-10 renal.
Assay in all cases: NCI anticancer screen, dose series, 48 h

Results on 20 molecules are retold here after PubChem BioAssay (NCI).

Where “and” joins values, the source holds several entries; their conditions need not be identical. Equal entries are not always repeated.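 In this assay, cells in 96-well plates receive the compound at five concentrations for 48 hours. Endpoints are linearly interpolated between the surrounding concentrations. GI50 is the concentration that inhibits growth by half. Definition used: TGI = concentration required for complete inhibition of growth.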 Numbered stars: 1 amine (or outer) side, 2 acyl side, 3 side chain; on linkers, the order of the positions; unused ones are H or OH. Bridge positions count the residues as written; N and C are the ends. Square brackets hold non-standard residues; d marks the D form. Peptide text beside a SMILES is read from it. I, II: the chains in the order shown. Actinocin(1to9) = Cc1c2oc3c(C)ccc(C(=O)[*:2])c3nc-2c(C(=O)[*:1])c(N)c1=O; NMeY = CN[CH](Cc1ccc(O)cc1)C(=O)O; Sar = CNCC(=O)O Some results are limits rather than exact numbers.

Take `COC(=O)C1CCc2nnc(-c3ccccc3)n21` (stereo not given): the TGI in the assay with A549 NSCLC, with HCT-15 colon, in the assay with KM12 colon, with SF-268 CNS, in the assay on SF-295 CNS and in the assay on SF-539 CNS was greater than 100 µM in each case. Also, the TGI in the assay with SK-MEL-28 melanoma, in the assay on SK-MEL-5 melanoma and in the assay with TK-10 renal was greater than 100 µM in each case.
Regarding `COc1ccc2c(c1)CN1CCc3c(cc(OC)c(OC)c3OC)C1C2` (stereo not given), the TGI in the assay on A549 NSCLC, in the assay with HCT-15 colon, in the assay on SF-268 CNS, with SF-295 CNS, with SF-539 CNS and in the assay with SK-MEL-28 melanoma was greater than 100 µM in each case. The TGI in the assay with SK-MEL-5 melanoma and in the assay on TK-10 renal was greater than 100 µM in each case.
On to `CCC[CH2][Sn]1([CH2]CCC)[S]CC[N]1S(=O)(=O)c1ccc(C)cc1`, for which the GI50 is 3.15 µM with A549 NSCLC; 1.51 µM in the assay on HCT-15 colon; 2.02 µM in the assay with KM12 colon; 1.19 µM in the assay with SF-268 CNS; 1.97 µM in the assay on SF-295 CNS; 1.36 µM with SF-539 CNS. In addition, the GI50 was 1.29 µM in the assay with SK-MEL-28 melanoma, 1.68 µM in the assay on SK-MEL-5 melanoma and 1.64 µM in the assay on TK-10 renal. For the same molecule, the TGI in the assay with A549 NSCLC was determined as 9.32 µM; with HCT-15 colon, 2.93 µM; in the assay on KM12 colon, 3.59 µM; with SF-268 CNS, 2.54 µM; with SF-295 CNS it was 3.42 µM; in the assay on SF-539 CNS, 2.68 µM. Moreover, the figures for the TGI in the assay with SK-MEL-28 melanoma, with SK-MEL-5 melanoma and with TK-10 renal were 2.61 µM, 3.2 µM and 3.04 µM, respectively.
As to `CNC(=O)CN(CC(=O)O)C(=O)NC`, the TGI in the assay with A549 NSCLC, with HCT-15 colon, with KM12 colon, in the assay with SF-268 CNS, in the assay with SF-295 CNS and in the assay on SF-539 CNS was greater than 100 µM throughout. For the same molecule, the TGI with SK-MEL-5 melanoma and with TK-10 renal was greater than 100 µM in each case.
Consider `C[C@H]1C=C2C(=O)O[C@H]3CC[C@@H](C1)[C@@]23O`, for which the TGI in the assay with A549 NSCLC was 34.3 µM; in the assay with HCT-15 colon it was 14.6 µM; in the assay with KM12 colon it was 12.7 µM; in the assay with SF-268 CNS it was 15.2 µM; with SF-295 CNS, 16.4 µM; in the assay with SF-539 CNS, 4.25 µM. In addition, the TGI in the assay with SK-MEL-28 melanoma is 16.1 µM; in the assay with SK-MEL-5 melanoma, 16.6 µM; in the assay with TK-10 renal, 8 µM.
Take `CC[PH+](CC)CC.[Cl][Au]`: the GI50 is 15.5 µM in the assay with A549 NSCLC; 1.31 µM with HCT-15 colon; 11.6 µM with KM12 colon; 1.51 µM in the assay on SF-268 CNS; 4.32 µM in the assay with SF-295 CNS; 2.35 µM in the assay on SF-539 CNS. For the same molecule, the GI50 in the assay on SK-MEL-28 melanoma is 0.78 µM; in the assay with SK-MEL-5 melanoma it was 1.14 µM; in the assay on TK-10 renal, 2 µM. In addition, the TGI in the assay with A549 NSCLC is 44.4 µM; in the assay on HCT-15 colon it was 3.17 µM; in the assay on KM12 colon, 26 µM; in the assay with SF-268 CNS, 3.35 µM; with SF-295 CNS, 8.88 µM; with SF-539 CNS, 7.36 µM. Moreover, the TGI turned out to be 2.35 µM with SK-MEL-28 melanoma, 2.44 µM with SK-MEL-5 melanoma and 3.51 µM with TK-10 renal.
For the molecule `COc1cc(/C=N/N=C(\N)NO)c([N+](=O)[O-])cc1OC`, the TGI in the assay with A549 NSCLC was greater than 100 µM; in the assay with HCT-15 colon, greater than 100 µM; in the assay on KM12 colon, greater than 100 µM; in the assay with SF-268 CNS, 99.2 µM; in the assay with SF-295 CNS it was greater than 100 µM; with SF-539 CNS, greater than 100 µM. The TGI was greater than 100 µM in the assay on SK-MEL-28 melanoma, 50.9 µM with SK-MEL-5 melanoma and greater than 100 µM with TK-10 renal.
Consider `CO[C@@]1(c2ccccc2)O[C@H]2OCCC2[C@H]1c1ccc(Cl)cc1` (stereo not given in full), for which the TGI was greater than 100 µM in the assay with A549 NSCLC; greater than 100 µM in the assay on HCT-15 colon; greater than 100 µM in the assay with KM12 colon; greater than 100 µM in the assay on SF-268 CNS; 59.7 µM in the assay with SF-295 CNS; greater than 100 µM in the assay on SF-539 CNS. For the same molecule, the results for the TGI with SK-MEL-28 melanoma, with SK-MEL-5 melanoma and in the assay on TK-10 renal were greater than 100 µM, 33.1 µM and greater than 100 µM, respectively.
As for `CC1=CCCC2C(C=O)(C1)CC(C)C2(CO)CC/C(=C/CO)CO` (stereo not given), the TGI in the assay on A549 NSCLC, in the assay on HCT-15 colon, in the assay on KM12 colon, in the assay on SF-295 CNS, in the assay with SK-MEL-28 melanoma and with SK-MEL-5 melanoma was greater than 100 µM each time. In the assay on TK-10 renal, the TGI was greater than 100 µM.
Take `CCOC(=O)C1=C(C)NC(c2ccco2)=C(C#N)C1c1cccc([N+](=O)[O-])c1` (stereo not given): the GI50 is 0.0293 µM with A549 NSCLC; 0.035 µM in the assay with KM12 colon; 0.0783 µM with SF-268 CNS; 0.0105 µM in the assay on SK-MEL-28 melanoma; 3.06 µM in the assay with TK-10 renal. The TGI with KM12 colon was found to be 16 µM; in the assay on SF-268 CNS, 41.4 µM; in the assay on SF-539 CNS it was 0.0128 µM; in the assay on SK-MEL-28 melanoma, 22.5 µM; in the assay with SK-MEL-5 melanoma, 0.311 µM; in the assay with TK-10 renal, 49.4 µM.
In the case of `CCCCN(CCCC)CC(C(C)=O)C(c1ccccc1)c1c(O)c2ccccc2oc1=O` (stereo not given), the TGI in the assay on A549 NSCLC, in the assay on HCT-15 colon, in the assay on KM12 colon, in the assay with SF-268 CNS, in the assay with SF-295 CNS and with SF-539 CNS was greater than 100 µM each time. In addition, the TGI with SK-MEL-28 melanoma, in the assay with SK-MEL-5 melanoma and in the assay with TK-10 renal was greater than 100 µM throughout.
`COCCNc1cncc(C(N)=O)c1`: the TGI in the assay on A549 NSCLC, in the assay with HCT-15 colon, in the assay with KM12 colon, in the assay on SF-268 CNS, in the assay on SF-295 CNS and in the assay on SF-539 CNS was greater than 100 µM each time. Moreover, the TGI with SK-MEL-28 melanoma, in the assay with SK-MEL-5 melanoma and in the assay with TK-10 renal was greater than 100 µM throughout.
On to `CC(=O)NN1C(=O)C(Cc2ccccc2)c2ccccc21` (stereo not given), for which the TGI in the assay with A549 NSCLC, in the assay on HCT-15 colon, in the assay on KM12 colon, in the assay on SF-268 CNS, in the assay on SF-295 CNS and in the assay with SF-539 CNS was greater than 100 µM in each case. The TGI in the assay on SK-MEL-28 melanoma, in the assay with SK-MEL-5 melanoma and with TK-10 renal was greater than 100 µM throughout.
As to `COc1ccc(CC2C(=O)OC(C)C(NC(=O)c3c4nc5c(C(=O)NC6C(=O)NC(C(C)C)C(=O)N7CCCC7C(=O)N(C)CC(=O)N(C)C(Cc7ccc(OC)cc7)C(=O)OC6C)ccc(C)c5oc-4c(C)c(=O)c3N)C(=O)NC(C(C)C)C(=O)N3CCCC3C(=O)N(C)CC(=O)N2C)cc1` (stereo not given) (I: TVP[Sar][NMeY](Me) / II: TVP[Sar][NMeY](Me); ester I:1-I:C, II:1-II:C; linker I:N-II:N via Actinocin(1to9); configuration not given here), the TGI is 0.29 µM and > 1 µM with A549 NSCLC; greater than 1 µM in the assay on HCT-15 colon; 0.28 µM in the assay on SF-295 CNS; 2.69 µM and 0.969 µM in the assay on TK-10 renal. Besides, in the assay on SF-268 CNS, the GI50 is < 0.01 µM and 0.00484 µM.
`COC(=O)N/N=C(\C)CC(=O)Nc1ccc(Cl)cc1`: the TGI in the assay on A549 NSCLC, with KM12 colon, with SF-268 CNS, with SF-295 CNS, with SF-539 CNS and in the assay on SK-MEL-28 melanoma was greater than 100 µM in each case. The TGI in the assay with SK-MEL-5 melanoma and in the assay with TK-10 renal was greater than 100 µM throughout.
For `O=C1NC2C(O)CCCCC2C12CCCCC2` (stereo not given), the TGI in the assay with A549 NSCLC, in the assay on HCT-15 colon, in the assay on KM12 colon, with SF-268 CNS, with SF-295 CNS and with SF-539 CNS was greater than 100 µM in each case. The TGI with SK-MEL-28 melanoma and with SK-MEL-5 melanoma was greater than 100 µM throughout.
`O=C1Nc2cc(F)ccc2C1=O`: the TGI in the assay with A549 NSCLC, with HCT-15 colon, in the assay on KM12 colon, in the assay on SF-268 CNS, in the assay with SF-295 CNS and in the assay with SF-539 CNS was greater than 100 µM in each case. The TGI in the assay on SK-MEL-28 melanoma, in the assay on SK-MEL-5 melanoma and with TK-10 renal was greater than 100 µM throughout.
For `c1ccc(OC2=NC3=S(S2)SC(Oc2ccccc2)=N3)cc1`, the TGI is 47.6 µM with A549 NSCLC; 43.3 µM with HCT-15 colon; 34.4 µM in the assay with KM12 colon; 57.6 µM in the assay on SF-268 CNS; 39 µM with SF-295 CNS; 54.6 µM in the assay with SF-539 CNS. In addition, the TGI in the assay with SK-MEL-5 melanoma amounted to 36.3 µM; in the assay with TK-10 renal, 33 µM.
With `CC(=O)[O-].N.N.N.N.[Co+3].[O-][Cl+3]([O-])([O-])[O-].[OH3+]`, the GI50 in the assay on A549 NSCLC, in the assay with HCT-15 colon, in the assay on KM12 colon, in the assay on SF-268 CNS, with SF-295 CNS and in the assay on SK-MEL-28 melanoma was greater than 100 µM each time. Moreover, the GI50 in the assay with SK-MEL-5 melanoma and with TK-10 renal was greater than 100 µM each time. Further, the TGI with A549 NSCLC, in the assay on HCT-15 colon, with KM12 colon, in the assay on SF-268 CNS, in the assay on SF-295 CNS and in the assay with SK-MEL-28 melanoma was greater than 100 µM throughout. The TGI with SK-MEL-5 melanoma and in the assay on TK-10 renal was greater than 100 µM each time.
As for `C=C1C[C@@H]2C[C@@H](C)CC(O)[C@]2(CCCN)C1O` (stereo not given in full), the TGI in the assay with A549 NSCLC, in the assay on KM12 colon, in the assay with SF-268 CNS, in the assay on SF-295 CNS, with SF-539 CNS and with SK-MEL-28 melanoma was greater than 100 µM each time. Further, the TGI with SK-MEL-5 melanoma and in the assay with TK-10 renal was greater than 100 µM each time.
